US20110224210A1, “NOVEL BIS-AMIDES AS ANTI-MALARIAL AGENTS” (priority 2008, published 2011)
Where two headings read alike, the source gives them in different places.

Tested on: P. falciparum K1 (strain resistant to chloroquine and pyrimethamine), erythrocytic stages
Experiment: Plasmodium falciparum in vitro assay, [3H] hypoxanthine incorporation
Assay type: cell-based
Conditions: Plasmodium falciparum
Protocol: In Vitro Antimalarial Activity: Plasmodium falciparum In Vitro Assay
In vitro activity against erythrocytic stages of P. falciparum is determined using a [^3H] hypoxanthine incorporation assay. One strain resistant to chloroquine and pyrimethamine (P. falciparum K1) is used in the assays, and all test compounds are compared for activity with the standard drugs chloroquine (sigma C6628) and artemisinin (sigma-36, 159-3). Compounds are diluted in DMSO to 1 mM and added to parasite cultures incubated in RPMI 1640 medium without hypoxanthine, supplemented with HEPES (5.94 g/L), NaHCO3 (2.1 g/L), neomycin (100 U/mL), Albumax (5 g/L) and washed human red cells at 2.5% haematocrit (0.3% parasitaemia). Seven serial doubling dilutions of each compound are prepared in 96-well microtitre plates and incubated in a humidifying atmosphere at 37° C.; 4% CO2, 3% O2, 93% N2.
After 48 h, 50 μl of [3H] hypoxanthine (0.5 μCi) is added to each well of a plate. The plates are incubated for a further 24 h under the same conditions. The plates are then harvested with a Betaplate cell harvester (Wallac) and washed with distilled water. The dried filters are inserted into a plastic foil with 10 mL of scintillation fluid, and counted in a Betaplate liquid scintillation counter. IC50 values are calculated from sigmoidal inhibition curves using Microsoft Excel.

[1] = K1, P. falciparum strain K1, [3H] hypoxanthine incorporation, read-out: IC50 (nM) on K1

SMILES	IC50 [1]	IC50 (K1, read-out: IC50 (nM) on K1)
CN(C)C1CCN(C(=O)C(Cc2cnn(C)c2)N(Cc2ccc(-c3ccccn3)cc2)C(=O)C=Cc2ccc(C(F)(F)F)cc2)CC1 (racemic) [Example 137]	413 nM	–
CN(C)C1CCN(C(=O)C(Cc2ccn(C)n2)N(Cc2ccc(-c3ccccn3)cc2)C(=O)C=Cc2ccc(C(F)(F)F)cc2)CC1 (racemic) [Example 138]	340 nM	–
CN(C)C1CCN(C(=O)C(Cc2cnn(C)c2)N(Cc2ccc(-c3ccncc3)cc2)C(=O)C=Cc2ccc(C(F)(F)F)cc2)CC1 (racemic) [Example 139]	155 nM	–
CN(C)C1CCN(C(=O)C(Cc2ccn(C)n2)N(Cc2ccc(-c3ccncc3)cc2)C(=O)C=Cc2ccc(C(F)(F)F)cc2)CC1 (racemic) [Example 140]	191 nM	–
CN(C)C1CCN(C(=O)C(Cc2ccnn2C)N(Cc2ccc(-c3ccncc3)cc2)C(=O)C=Cc2ccc(C(F)(F)F)cc2)CC1 (racemic) [Example 141]	339 nM	–
CN(C)C1CCN(C(=O)C(Cc2ccnn2C)N(Cc2ccc(-c3ccccn3)cc2)C(=O)C=Cc2ccc(C(F)(F)F)cc2)CC1 (racemic) [Example 142]	460 nM	–
O=C(NC1CN2CCC1CC2)[C@H](Cc1ccccc1)N(Cc1ccc(-c2ccccn2)cc1)C(=O)C=Cc1ccc(C(F)(F)F)cc1 (mixture of isomers) [Example 152]	242 nM	–
COCCN(C)C(=O)C(Cc1cnn(C)c1)N(Cc1ccc(-c2ccccn2)cc1)C(=O)C=Cc1ccc(C(F)(F)F)cc1 (racemic) [Example 164]	247 nM	–
COCCN(C)C(=O)C(Cc1ccn(C)n1)N(Cc1ccc(-c2ccccn2)cc1)C(=O)C=Cc1ccc(C(F)(F)F)cc1 (racemic) [Example 165]	76 nM	–
COCCN(C)C(=O)C(Cc1cnn(C)c1)N(Cc1ccc(-c2ccncc2)cc1)C(=O)C=Cc1ccc(C(F)(F)F)cc1 (racemic) [Example 166]	96 nM	–
COCCN(C)C(=O)C(Cc1ccn(C)n1)N(Cc1ccc(-c2ccncc2)cc1)C(=O)C=Cc1ccc(C(F)(F)F)cc1 (racemic) [Example 167]	41 nM	–
COCCN(C)C(=O)C(Cc1ccnn1C)N(Cc1ccc(-c2ccncc2)cc1)C(=O)C=Cc1ccc(C(F)(F)F)cc1 (racemic) [Example 168]	349 nM	–
COCCN(C)C(=O)C(Cc1ccon1)N(Cc1ccc(-c2ccncc2)cc1)C(=O)C=Cc1ccc(C(F)(F)F)cc1 (racemic) [Example 169]	312 nM	–
COCCN(C)C(=O)C(Cc1ncccn1)N(Cc1ccc(-c2ccncc2)cc1)C(=O)C=Cc1ccc(C(F)(F)F)cc1 (racemic) [Example 170]	192 nM	–
COCCN(C)C(=O)C(CN1CCN(C)CC1)N(Cc1ccc(-c2ccccn2)cc1)C(=O)C=Cc1ccc(C(F)(F)F)cc1 (racemic) [Example 278]	137 nM	–
COCCN(C)C(=O)C(CN1CCOCC1)N(Cc1ccc(-c2ccccn2)cc1)C(=O)C=Cc1ccc(C(F)(F)F)cc1 (racemic) [Example 279]	< 8 nM	–
COCCN(C)C(=O)C(CN1CCCC1)N(Cc1ccc(-c2ccccn2)cc1)C(=O)C=Cc1ccc(C(F)(F)F)cc1 (racemic) [Example 280]	219 nM	–
COCCN(C)C(=O)C(Cn1ccnc1)N(Cc1ccc(-c2ccccn2)cc1)C(=O)C=Cc1ccc(C(F)(F)F)cc1 (racemic) [Example 281]	448 nM	–
COCCN(C)C(=O)C(Cn1cccc1)N(Cc1ccc(-c2ccncc2)cc1)C(=O)C=Cc1ccc(C(F)(F)F)cc1 (racemic) [Example 282]	35 nM	–

SMILES	IC50 [1]	IC50 (K1, read-out: IC50 (nM) on K1)
COCCN(C)C(=O)C(CN1C(=O)C(=O)c2ccccc21)N(Cc1ccc(-c2ccncc2)cc1)C(=O)C=Cc1ccc(C(F)(F)F)cc1 (racemic) [Example 283]	324 nM	–
COCCN(C)C(=O)C(CN1CCOC1=O)N(Cc1ccc(-c2ccncc2)cc1)C(=O)C=Cc1ccc(C(F)(F)F)cc1 (racemic) [Example 284]	362 nM	–
C[C@@H]1CC[C@H]2[C@@H](C)C(=O)O[C@@H]3O[C@@]4(C)CC[C@@H]1[C@]32OO4 [Artemisinin]	3 nM	–
CCN(CC)CCCC(C)Nc1ccnc2cc(Cl)ccc12 (stereo not shown) [Chloroquine]	–	194 nM
Cc1nn(C)c(C)c1C=CC(=O)N(Cc1ccc(N2CCOCC2)cc1)[C@@H](Cc1ccccc1)C(=O)N1CCC(N(C)C)CC1 [Example 1, (S)-N-[1-Benzyl-2-(4-dimethylamino-piperidin-1-yl)-2-oxo-ethyl]-N-(4-morpholin-4-yl-benzyl)-3-(1,3,5-trimethyl-1H-pyrazol-4-yl)-acrylamide]	211 nM	–
Cc1nc(C)c(C=CC(=O)N(Cc2ccc(N3CCOCC3)cc2)[C@@H](Cc2ccccc2)C(=O)N2CCC(N(C)C)CC2)s1 [Example 2, (S)-N-[1-Benzyl-2-(4-dimethylamino-piperidin-1-yl)-2-oxo-ethyl]-3-(2,4-dimethyl-thiazol-5-yl)-N-(4-morpholin-4-yl-benzyl)-acrylamide]	466 nM	–
Cc1noc(C)c1C=CC(=O)N(Cc1ccc(N2CCOCC2)cc1)[C@@H](Cc1ccccc1)C(=O)N1CCC(N(C)C)CC1 [Example 3, (S)-N-[1-Benzyl-2-(4-dimethylamino-piperidin-1-yl)-2-oxo-ethyl]-3-(3,5-dimethyl-isoxazol-4-yl)-N-(4-morpholin-4-yl-benzyl)-acrylamide]	436 nM	–
CN(C)C1CCN(C(=O)[C@H](Cc2ccccc2)N(Cc2ccc(N3CCOCC3)cc2)C(=O)C=Cc2ccc(C(F)(F)F)cn2)CC1 [Example 4, (S)-N-[1-Benzyl-2-(4-dimethylamino-piperidin-1-yl)-2-oxo-ethyl]-N-(4-morpholin-4-yl-benzyl)-3-(5-trifluoromethyl-pyridin-2-yl)-acrylamide]	323 nM	–
COc1ccc(C=CC(=O)N(Cc2ccc(N3CCOCC3)cc2)[C@@H](Cc2ccccc2)C(=O)N2CCC(N(C)C)CC2)cn1 [Example 5, (S)-N-[1-Benzyl-2-(4-dimethylamino-piperidin-1-yl)-2-oxo-ethyl]-3-(6-methoxy-pyridin-3-yl)-N-(4-morpholin-4-yl-benzyl)-acrylamide]	319 nM	–
CN(C)C1CCN(C(=O)[C@H](Cc2ccccc2)N(Cc2ccc(-c3ccccn3)cc2)C(=O)C=Cc2ccc(C(F)(F)F)cc2)CC1 [Example 6, (S)-N-[1-Benzyl-2-(4-dimethylamino-piperidin-1-yl)-2-oxo-ethyl]-N-(4-pyridin-2-yl-benzyl)-3-(4-trifluoromethyl-phenyl)-acrylamide]	54 nM	–
CN(C)C1CCN(C(=O)[C@H](Cc2ccccc2)N(Cc2ccc(-c3ccccn3)cc2)C(=O)C=Cc2ccc(C(F)(F)F)nc2)CC1 [Example 7, (S)-N-[1-Benzyl-2-(4-dimethylamino-piperidin-1-yl)-2-oxo-ethyl]-N-(4-pyridin-2-yl-benzyl)-3-(6-trifluoromethyl-pyridin-3-yl)-acrylamide]	14 nM	–
Cc1cc(C=CC(=O)N(Cc2ccc(-c3ccccn3)cc2)[C@@H](Cc2ccccc2)C(=O)N2CCC(N(C)C)CC2)n(C)n1 [Example 8, (S)-N-[1-Benzyl-2-(4-dimethylamino-piperidin-1-yl)-2-oxo-ethyl]-3-(2,5-dimethyl-2H-pyrazol-3-yl)-N-(4-pyridin-2-yl-benzyl)-acrylamide]	381 nM	–
Cc1nn(C)c(C)c1C=CC(=O)N(Cc1ccc(-c2ccccn2)cc1)[C@@H](Cc1ccccc1)C(=O)N1CCC(N(C)C)CC1 [Example 9, (S)-N-[1-Benzyl-2-(4-dimethylamino-piperidin-1-yl)-2-oxo-ethyl]-N-(4-pyridin-2-yl-benzyl)-3-(1,3,5-trimethyl-1H-pyrazol-4-yl)-acrylamide]	69 nM	–
Cc1nc(C)c(C=CC(=O)N(Cc2ccc(-c3ccccn3)cc2)[C@@H](Cc2ccccc2)C(=O)N2CCC(N(C)C)CC2)s1 [Example 10, (S)-N-[1-Benzyl-2-(4-dimethylamino-piperidin-1-yl)-2-oxo-ethyl]-3-(2,4-dimethyl-thiazol-5-yl)-N-(4-pyridin-2-yl-benzyl)-acrylamide]	176 nM	–
Cc1nc(C=CC(=O)N(Cc2ccc(-c3ccccn3)cc2)[C@@H](Cc2ccccc2)C(=O)N2CCC(N(C)C)CC2)cs1 [Example 11, (S)-N-[1-Benzyl-2-(4-dimethylamino-piperidin-1-yl)-2-oxo-ethyl]-3-(2-methyl-thiazol-4-yl)-N-(4-pyridin-2-yl-benzyl)-acrylamide]	315 nM	–
Cc1noc(C)c1C=CC(=O)N(Cc1ccc(-c2ccccn2)cc1)[C@@H](Cc1ccccc1)C(=O)N1CCC(N(C)C)CC1 [Example 12, (S)-N-[1-Benzyl-2-(4-dimethylamino-piperidin-1-yl)-2-oxo-ethyl]-3-(3,5-dimethyl-isoxazol-4-yl)-N-(4-pyridin-2-yl-benzyl)-acrylamide]	220 nM	–
Cc1nc(C=CC(=O)N(Cc2ccc(-c3ccccn3)cc2)[C@@H](Cc2ccccc2)C(=O)N2CCC(N(C)C)CC2)c(C)o1 [Example 13, (S)-N-[1-Benzyl-2-(4-dimethylamino-piperidin-1-yl)-2-oxo-ethyl]-3-(2,5-dimethyl-oxazol-4-yl)-N-(4-pyridin-2-yl-benzyl)-acrylamide]	355 nM	–
CN(C)C1CCN(C(=O)[C@H](Cc2ccccc2)N(Cc2ccc(-c3ccccn3)cc2)C(=O)C=Cc2ccc(Cl)nc2)CC1 [Example 14, (S)-N-[1-Benzyl-2-(4-dimethylamino-piperidin-1-yl)-2-oxo-ethyl]-3-(6-chloro-pyridin-3-yl)-N-(4-pyridin-2-yl-benzyl)-acrylamide]	226 nM	–
